Experiment [1] concerns the target PC1 β-lactamase enzyme (Staphylococcus aureus, UniProt P00807). Briefly: biochemical.
The target in experiment [2] is P. mirabilis β-lactamase enzyme. Briefly: β-lactamase inhibitory activity: 50% inhibition of β-lactam hydrolysis, P. mirabilis. In kind it is biochemical. The note with it: read-out: I50 (concentration required to achieve 50% inhibition of β-lactam hydrolysis).
Experiment [3] deals with BC II β-lactamase enzyme (Bacillus cereus, UniProt P04190). Briefly: β-lactamase inhibitory activity: 50% inhibition of β-lactam hydrolysis, BC II. In kind it is biochemical.
Chain of BC II β-lactamase enzyme (P04190 31-257): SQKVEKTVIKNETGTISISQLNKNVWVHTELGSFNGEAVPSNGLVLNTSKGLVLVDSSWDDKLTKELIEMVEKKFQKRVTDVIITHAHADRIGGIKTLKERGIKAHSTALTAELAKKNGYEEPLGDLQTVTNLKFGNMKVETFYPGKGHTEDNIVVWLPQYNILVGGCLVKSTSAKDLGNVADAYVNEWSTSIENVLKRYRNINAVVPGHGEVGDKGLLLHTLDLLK
For experiment [4], the target named is TEM-1 β-lactamase enzyme (Escherichia coli, UniProt P62593). Briefly: β-lactamase inhibitory activity: 50% inhibition of β-lactam hydrolysis, TEM-1. It counts as biochemical.
Chain of TEM-1 β-lactamase enzyme (P62593 24-286 limits assumed): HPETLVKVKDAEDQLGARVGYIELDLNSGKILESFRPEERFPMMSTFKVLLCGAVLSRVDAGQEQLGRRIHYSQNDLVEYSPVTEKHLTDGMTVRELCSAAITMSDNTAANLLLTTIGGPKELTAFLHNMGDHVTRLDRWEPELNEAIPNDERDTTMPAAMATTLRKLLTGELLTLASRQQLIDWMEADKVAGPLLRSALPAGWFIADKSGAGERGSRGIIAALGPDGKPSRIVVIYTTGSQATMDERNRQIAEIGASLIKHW
Experiment [5] concerns the target OXA-1 β-lactamase enzyme (Escherichia coli, UniProt P13661). As to the kind of experiment: biochemical.
In experiment [6] the target is P99 β-lactamase enzyme (Enterobacter cloacae, UniProt P05364). Briefly: biochemical.
Chain of P99 β-lactamase enzyme (P05364 21-381): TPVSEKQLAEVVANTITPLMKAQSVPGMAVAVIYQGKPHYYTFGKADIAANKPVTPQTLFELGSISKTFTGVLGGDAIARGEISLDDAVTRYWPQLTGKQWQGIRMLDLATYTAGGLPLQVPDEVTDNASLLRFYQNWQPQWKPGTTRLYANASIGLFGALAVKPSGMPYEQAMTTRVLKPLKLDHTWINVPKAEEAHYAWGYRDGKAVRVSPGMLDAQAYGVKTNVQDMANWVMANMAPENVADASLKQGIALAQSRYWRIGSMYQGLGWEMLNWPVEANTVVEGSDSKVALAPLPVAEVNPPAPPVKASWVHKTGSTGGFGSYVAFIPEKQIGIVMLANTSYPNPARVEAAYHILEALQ

Structures are written as SMILES. Some results are limits rather than exact numbers.

Chain of OXA-1 β-lactamase enzyme (P13661 26-276): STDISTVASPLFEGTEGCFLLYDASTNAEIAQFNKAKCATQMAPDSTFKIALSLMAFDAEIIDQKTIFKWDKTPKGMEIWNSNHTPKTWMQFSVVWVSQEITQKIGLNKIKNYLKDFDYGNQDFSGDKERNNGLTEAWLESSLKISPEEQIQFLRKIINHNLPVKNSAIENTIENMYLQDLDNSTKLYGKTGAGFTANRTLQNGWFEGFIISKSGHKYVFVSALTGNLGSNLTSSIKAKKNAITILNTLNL
Chain of PC1 β-lactamase enzyme (P00807 25-281): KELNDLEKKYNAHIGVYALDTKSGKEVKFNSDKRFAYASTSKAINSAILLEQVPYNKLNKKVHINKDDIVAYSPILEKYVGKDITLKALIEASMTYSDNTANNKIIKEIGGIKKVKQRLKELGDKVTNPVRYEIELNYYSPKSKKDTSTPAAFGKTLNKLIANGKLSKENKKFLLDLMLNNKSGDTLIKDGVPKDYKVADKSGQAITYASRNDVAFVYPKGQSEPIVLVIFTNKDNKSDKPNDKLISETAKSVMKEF

As to `O=C(O)C1=CS[C@@H]2/C(=C\c3cn4c(n3)SCC4)C(=O)N12` [Example 1, Sodium (5R)-6[(Z)-(2,3-dihydroimidazo[2,1-b]thiazol-6-yl)methylene]-penem-3-carboxylate], the IC50 in experiment [1] was 10 nM; in experiment [2], 10 nM; in experiment [3], 48600 nM; in experiment [4], 10 nM; in experiment [5] it was 10 nM; in experiment [6], less than 5 nM.

(Values after patent US6600035B1, “6-(substituted methylene) penems and intermediates” (SMithKline Beecham p.l.c., priority 1992, dated 2003).)
